Measured values: patent US8541449B2, “Substituted isoquinolines and isoquinolinones as Rho kinase inhibitors” (Sanofi, priority 2008, dated 2013)

Tests used:
Format in all cases: biochemical
[1] = biological target: T1, human recombinant ROCK II (Homo sapiens, UniProt O75116); experiment: Determination of Rho kinase inhibition (Caliper peptide phosphorylation assay); details: 60 min at 32° C., negative decadal logarithm of the IC50
T1 construct: N-terminal His6-tagged recombinant human ROCK-II residues 11-552; His6 (N); purchased Millipore GmbH, Schwalbach, Germany
T1 sequence (O75116 11-552): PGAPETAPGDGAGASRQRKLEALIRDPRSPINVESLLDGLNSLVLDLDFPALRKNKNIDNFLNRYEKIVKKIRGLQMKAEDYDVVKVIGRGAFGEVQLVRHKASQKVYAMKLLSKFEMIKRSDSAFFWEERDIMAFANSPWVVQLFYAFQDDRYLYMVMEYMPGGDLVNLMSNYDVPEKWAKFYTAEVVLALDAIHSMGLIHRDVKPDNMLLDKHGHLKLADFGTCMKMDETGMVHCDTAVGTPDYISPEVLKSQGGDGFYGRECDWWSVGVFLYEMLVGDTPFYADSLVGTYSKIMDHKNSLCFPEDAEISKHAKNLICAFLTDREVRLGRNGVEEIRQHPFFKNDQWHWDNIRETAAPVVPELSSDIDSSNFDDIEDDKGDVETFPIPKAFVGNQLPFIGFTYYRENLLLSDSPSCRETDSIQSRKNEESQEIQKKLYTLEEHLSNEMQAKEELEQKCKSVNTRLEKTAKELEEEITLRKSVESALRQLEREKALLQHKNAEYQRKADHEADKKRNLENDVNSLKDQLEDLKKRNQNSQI
Method: Determination of Rho Kinase Inhibition
To measure Rho-kinase inhibition, IC50 values were determined according to the following protocol:
Active human recombinant ROCK II (N-terminal His6-tagged recombinant human ROCK-II residues 11-552) was purchased from Millipore GmbH, Schwalbach, Germany. The peptide substrate, Fluorescein-[…]-COOH, was obtained from JPT Peptide Technologies, Berlin, Germany. Adenosine-5′-triphosphate (ATP), bovine serum albumine (BSA), dimethylsulphoxide (DMSO), 4-(2-Hydroxyethyl)piperazine-1-ethanesulfonic acid (Hepes), Brij-35, dithiothreitol (DTT) and Pluronic F-68 were purchased from Sigma-Aldrich, Munich, Germany. Tris(hydroxymethyl)-aminomethane (Tris), magnesium chloride, NaOH, 1M HCl and EDTA were obtained from Merck Biosciences, Darmstadt, Germany. “Complete” protease inhibitor was from Roche Diagnostics, Mannheim, Germany.
(§1) Test compounds were diluted to the appropriate concentrations in buffer 1 (25 mM Tris-HCl, pH 7.4, 5 mM MgCl2, 2 mM DTT, 0.02% (w/v) BSA, 0.01% Pluronic F-68 and 3% DMSO). The ROCK II enzyme was diluted to a concentration of 100 ng/mL in buffer 2 (25 mM Tris-HCl, pH 7.4, 5 mM MgCl2, 2 mM DTT and 0.02% (w/v) BSA). The peptide substrate and ATP were diluted to concentrations of 3 μM and 120 μM, respectively, in the buffer 2. Two μl of the compound solution were mixed with 2 μl of the diluted enzyme in a 384-well small volume microtiter plate (Greiner, Bio-One, Frickenhausen, Germany), and the kinase reaction was initiated by addition of 2 μl of the solution containing peptide substrate and ATP. After 60 min incubation at 32° C., the reaction was stopped by addition of 20 μl of a solution containing 100 mM Hepes-NaOH, pH 7.4, 0.015% (v/v) Brij-35, 45 mM EDTA and 0.227% chip coating reagent 1 (Caliper Lifescience Inc, Hopkinton, Mass.). Phosphorylation of the substrate peptide was then detected on a Caliper 3000 instrument essentially as described by Pommereau et al (J. Biomol. Screening 9(5), 409-416, 2004). Separation conditions were as follows: Pressure −1.3 psi, upstream voltage −1562 V, downstream voltage −500 V, sample sip time 200 ms. Positive controls (buffer 1 instead of compound) and negative controls (buffer 1 instead of compound and buffer 2 instead of ROCK II) were run in parallel on each plate.
The following products/compounds were tested in said assay by using the respective form (salt or free base) obtained as in the examples described above and the following activities were measured

recombinant human PKA = biological target: T2, recombinant human PKA (Homo sapiens, UniProt P17612); experiment: Determination of Protein Kinase A inhibition (Caliper peptide phosphorylation assay); details: recombinant human PKA versus ROCK II
T2 construct: Active recombinant human PKA (residues 1-351, N-terminal His-tag); His-tag (N); purchased Invitrogen, Karlsruhe, Germany
Method: (§2) Determination of Protein Kinase A and Protein Kinase G Inhibition
(§3) To measure PKA and PKG1-beta inhibition, IC50 values were determined according to the following protocol:
(§4) Active recombinant human PKG1-beta (full-length, with N-terminal His-tag) was purchased from Millipore GmbH, Schwalbach, Germany. Active recombinant human PKA (residues 1-351, N-terminal His-tag) was obtained from Invitrogen, Karlsruhe, Germany. The peptide substrate, Fluorescein-[…]-COOH, was obtained from JPT Peptide Technologies, Berlin, Germany. Adenosine-5′-triphosphate (ATP), bovine serum albumine (BSA), dimethylsulphoxide (DMSO), 4-(2-Hydroxyethyl)piperazine-1-ethanesulfonic acid (Hepes), Brij-35, dithiothreitol (DTT) and Pluronic F-68 were purchased from Sigma-Aldrich, Munich, Germany. Tris(hydroxymethyl)-aminomethane (Tris), magnesium chloride, NaOH, 1M HCl and EDTA were obtained from Merck Biosciences, Darmstadt, Germany. “Complete” protease inhibitor was from Roche Diagnostics, Mannheim, Germany.
as §1, with “PKG1-beta and PKA were” for “The ROCK II enzyme was”, “concentrations” for “a concentration”, “150 ng/ml and 30 ng/ml, respectively,” for “100 ng/mL”, “2.” for “2 (25 mM Tris-HCl, pH 7.4, 5 mM MgCl2, 2 mM DTT and 0.02% (w/v) BSA).”, “kinase solution)” for “ROCK II)”, “plate. The following products/compounds were tested in said assay by using the respective form (salt or free base) obtained as in the examples described above and the following activities were measured.” for “plate.”

[2] = biological target: T3, recombinant human PKG1-beta (Homo sapiens, UniProt Q13976); experiment: Determination of Protein Kinase G inhibition (Caliper peptide phosphorylation assay); details: recombinant human PKG1-beta versus ROCK II
T3 construct: Active recombinant human PKG1-beta (full-length, with N-terminal His-tag); His-tag (N); purchased Millipore GmbH, Schwalbach, Germany
T3 sequence (Q13976 1-686 isoform Q13976-2): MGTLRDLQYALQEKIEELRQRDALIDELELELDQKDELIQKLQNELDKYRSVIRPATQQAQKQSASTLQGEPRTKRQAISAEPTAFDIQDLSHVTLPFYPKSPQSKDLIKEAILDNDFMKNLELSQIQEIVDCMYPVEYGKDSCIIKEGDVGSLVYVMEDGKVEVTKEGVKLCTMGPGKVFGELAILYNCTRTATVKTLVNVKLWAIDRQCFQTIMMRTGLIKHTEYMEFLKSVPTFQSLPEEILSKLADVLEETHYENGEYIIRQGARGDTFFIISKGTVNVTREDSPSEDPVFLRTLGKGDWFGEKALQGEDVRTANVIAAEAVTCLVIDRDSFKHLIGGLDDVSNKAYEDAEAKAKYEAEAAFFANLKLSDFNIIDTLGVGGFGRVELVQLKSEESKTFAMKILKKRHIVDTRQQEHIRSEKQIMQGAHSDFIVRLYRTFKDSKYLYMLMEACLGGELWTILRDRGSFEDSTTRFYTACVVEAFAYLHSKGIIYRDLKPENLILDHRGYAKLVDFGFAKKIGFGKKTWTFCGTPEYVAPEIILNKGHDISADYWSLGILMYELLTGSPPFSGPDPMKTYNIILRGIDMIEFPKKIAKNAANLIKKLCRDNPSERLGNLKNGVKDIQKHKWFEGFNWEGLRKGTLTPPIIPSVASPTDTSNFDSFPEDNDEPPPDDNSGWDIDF
Method: as §2, §3, §4
as §1, with “PKG1-beta and PKA were” for “The ROCK II enzyme was”, “concentrations” for “a concentration”, “150 ng/ml and 30 ng/ml, respectively,” for “100 ng/mL”, “2.” for “2 (25 mM Tris-HCl, pH 7.4, 5 mM MgCl2, 2 mM DTT and 0.02% (w/v) BSA).”, “kinase solution)” for “ROCK II)”, “plate. The following products/compounds were tested in said assay by using the respective form (salt or free base) obtained as in the examples described above and the following activities were measured.” for “plate.”

## CCC(N)[C@]1(c2ccc(F)cc2)CC[C@H](Oc2cc3cc[nH]c(=O)c3cc2Cl)CC1 (stereo partly drawn) [Example 1, cis-6-[4-(1-Amino-propyl)-4-(4-fluoro-phenyl)-cyclohexyloxy]-7-chloro-2H-isoquinolin-1-one]
[1]
  pIC50: +++++++ (8.0≦pIC50)
Recombinant human PKA
  Selectivity against PKA: >1000
[2]
  Selectivity against PKG: >1000

## NC1([C@]2(c3ccccc3)CC[C@H](Oc3cc4cc[nH]c(=O)c4cc3Cl)CC2)CC1 [Example 2, cis-6-[4-(1-Amino-cyclopropyl)-4-phenyl-cyclohexyloxy]-7-chloro-2H-isoquinolin-1-one]
[1]
  pIC50: +++++++ (8.0≦pIC50)
Recombinant human PKA
  Selectivity against PKA: >1000
[2]
  Selectivity against PKG: >1000

## CCC(N)[C@]1(c2ccccc2)CC[C@H](Oc2cc3cc[nH]c(=O)c3cc2Cl)CC1 (stereo partly drawn) [Example 3, cis-6-{[4-(1-aminopropyl)-4-phenylcyclohexyl]oxy}-7-chloro-2H-isoquinolin-1-one]
[1]
  pIC50: +++++++ (8.0≦pIC50)
Recombinant human PKA
  Selectivity against PKA: >1000
[2]
  Selectivity against PKG: >300

## CCCC(N)[C@]1(c2ccccc2)CC[C@H](Oc2cc3cc[nH]c(=O)c3cc2Cl)CC1 (stereo partly drawn) [Example 4, cis-6-[4-(1-Amino-butyl)-4-phenyl-cyclohexyloxy]-7-chloro-2H-isoquinolin-1-one]
[1]
  pIC50: +++++++ (8.0≦pIC50)
Recombinant human PKA
  Selectivity against PKA: >1000
[2]
  Selectivity against PKG: >100

## CCCC(N)[C@]1(c2ccc(F)cc2)CC[C@H](Oc2cc3cc[nH]c(=O)c3cc2Cl)CC1 (stereo partly drawn) [Example 5, cis-6-[4-(1-Amino-butyl)-4-(4-fluoro-phenyl)-cyclo-hexyloxy]-7-chloro-2H-isoquinolin-1-one]
[1]
  pIC50: +++++++ (8.0≦pIC50)
Recombinant human PKA
  Selectivity against PKA: >1000
[2]
  Selectivity against PKG: >300

## CCC(N)[C@]1(c2ccc(Br)cc2)CC[C@H](Oc2cc3cc[nH]c(=O)c3cc2Cl)CC1 (stereo partly drawn) [Example 6, cis-6-[4-(1-Amin-propyl)-4-(4-bromo-phenyl)-cyclohexyloxy]-7-chloro-2H-isoquinolin-1-one]
[1]
  pIC50: +++++++ (8.0≦pIC50)
Recombinant human PKA
  Selectivity against PKA: >1000
[2]
  Selectivity against PKG: >300

## CCC(N)[C@]1(c2ccccc2Br)CC[C@H](Oc2cc3cc[nH]c(=O)c3cc2Cl)CC1 (stereo partly drawn) [Example 7, cis-6-[4-(1-Amino-propyl)-4-(2-bromo-phenyl)-cyclohexyloxy]-7-chloro-2H-isoquinolin-1-one]
[1]
  pIC50: +++++++ (8.0≦pIC50)
Recombinant human PKA
  Selectivity against PKA: >1000
[2]
  Selectivity against PKG: >300

## CCC(N)[C@]1(c2ccc(C(F)(F)F)cc2)CC[C@H](Oc2cc3cc[nH]c(=O)c3cc2Cl)CC1 (stereo partly drawn) [Example 8, cis-6-[4-(1-Amino-propyl)-4-(4-trifluoromethyl-phenyl)-cyclo-hexyloxy]-7-chloro-2H-isoquinolin-1-one]
[1]
  pIC50: +++++++ (8.0≦pIC50)
Recombinant human PKA
  Selectivity against PKA: >1000
[2]
  Selectivity against PKG: >300

## CCC(N)[C@]1(c2ccccc2F)CC[C@H](Oc2cc3cc[nH]c(=O)c3cc2Cl)CC1 (stereo partly drawn) [Example 9, cis-6-[4-(1-Amino-propyl)-4-(2-fluoro-phenyl)-cyclohexyloxy]-7-chloro-2H-isoquinolin-1-one]
[1]
  pIC50: +++++++ (8.0≦pIC50)
Recombinant human PKA
  Selectivity against PKA: >1000
[2]
  Selectivity against PKG: >100

## CCC(N)[C@]1(c2ccccc2Cl)CC[C@H](Oc2cc3cc[nH]c(=O)c3cc2Cl)CC1 (stereo partly drawn) [Example 10, cis-6-[4-(1-Amino-propyl)-4-(2-chloro-phenyl)-cyclohexyloxy]-7-chloro-2H-iso quinolin-1-one]
[1]
  pIC50: +++++++ (8.0≦pIC50)
Recombinant human PKA
  Selectivity against PKA: >100
[2]
  Selectivity against PKG: >100

## CCC(N)[C@]1(c2ccccc2)CC[C@H](Oc2cc3cc[nH]c(=O)c3cc2C)CC1 (stereo partly drawn) [Example 11, cis-6-[4-(1-Amino-propyl)-4-phenyl-cyclohexyloxy]-7-methyl-2H-iso quinolin-1-one]
[1]
  pIC50: ++++++ (7.0≦pIC50<8.0)
Recombinant human PKA
  Selectivity against PKA: >300
[2]
  Selectivity against PKG: >10

## CCCC(N)[C@]1(c2ccc(F)cc2)CC[C@@H](Oc2cc3cc[nH]c(=O)c3cc2Cl)CC1 (stereo partly drawn) [Example 12, trans-6-[4-(1-Amino-butyl)-4-(4-fluoro-phenyl)-cyclohexyloxy]-7-chloro-2H-isoquinolin-1-one]
[1]
  pIC50: +++++ (6.0≦pIC50<7.0)
Recombinant human PKA
  Selectivity against PKA: >100
[2]
  Selectivity against PKG: >10

## CC(N)[C@]1(c2ccc(F)cc2)CC[C@@H](Oc2cc3cc[nH]c(=O)c3cc2Cl)CC1 (stereo partly drawn) [Example 13, trans-6-[4-(1-Amino-ethyl)-4-(4-fluoro-phenyl)-cyclohexyloxy]-7-chloro-2H-isoquinolin-1-one]
[1]
  pIC50: ++++++ (7.0≦pIC50<8.0)
Recombinant human PKA
  Selectivity against PKA: >300
[2]
  Selectivity against PKG: >100

## CCCC(N)[C@]1(c2ccccc2)CC[C@@H](Oc2cc3cc[nH]c(=O)c3cc2Cl)CC1 (stereo partly drawn) [Example 14, trans-6-[4-(1-Amino-butyl)-4-phenyl-cyclohexyloxy]-7-chloro-2H-isoquinolin-1-one]
[1]
  pIC50: +++++ (6.0≦pIC50<7.0)
Recombinant human PKA
  Selectivity against PKA: >100
[2]
  Selectivity against PKG: >100
